According to PubChem BioAssay AID192 (DTP/NCI, 2004):
“And” between values parts separate entries of the source, which are not always exact repeats. Equal values may be shown once. Inconclusive results and toxic doses are left out. How the source made its calls: active means survival T/C of 150% or more; inactive means T/C below 125% in these data.

Tested on: BDF1 mice, B16 melanoma ip, median survival T/C
Experiment: NCI In Vivo Anticancer Drug Screen. Data for tumor model B16 Melanoma (intraperitoneal) in B6D2F1 (BDF1) mice
Details: endpoint: median survival time, higher = longer survival
Procedure, shortened: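 Antitumor activity is assessed in mice bearing a transplanted tumor, with survival or tumor size compared against vehicle-dosed controls and expressed as T/C.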

[1] = dose: 2.5 mg/kg/injection, schedule: Q01DX009 (ip), vehicle: saline
[2] = dose: 5.0 mg/kg/injection, schedule: Q01DX009 (ip), vehicle: saline
[3] = dose: 10.0 mg/kg/injection, schedule: Q01DX009 (ip), vehicle: saline
[4] = dose: 100.0 mg/kg/injection, schedule: Q01DX009 (ip), vehicle: Klucel (hydroxypropylcellulose) (HPC)
[5] = dose: 200.0 mg/kg/injection, schedule: Q01DX009 (ip), vehicle: Klucel (hydroxypropylcellulose) (HPC)
[6] = dose: 6.25 mg/kg/injection, schedule: Q01DX009 (ip), vehicle: saline
[7] = dose: 12.5 mg/kg/injection, schedule: Q01DX009 (ip), vehicle: saline
[8] = dose: 25.0 mg/kg/injection, schedule: Q01DX009 (ip), vehicle: Klucel (hydroxypropylcellulose) (HPC)
[9] = dose: 50.0 mg/kg/injection, schedule: Q01DX009 (ip), vehicle: Klucel (hydroxypropylcellulose) (HPC)

Measured: T/C

COc1ccc(C(=O)/C(Br)=C/C(=O)O)cc1
inactive: [1] 99 % of control | [2] 96 % of control | [3] 95 % of control and 98 % of control | dose: 20.0 mg/kg/injection, schedule: Q01DX009 (ip), vehicle: saline 96 % of control | dose: 40.0 mg/kg/injection, schedule: Q01DX009 (ip), vehicle: saline 95 % of control and 100 % of control

Nc1ccc2nc3ccc(=O)cc-3n(-c3ccccc3)c2c1
inactive: dose: 0.5 mg/kg/injection, schedule: Q01DX009 (ip), vehicle: saline 109 % of control | dose: 1.0 mg/kg/injection, schedule: Q01DX009 (ip), vehicle: saline 104 % of control | [1] 111 % of control | [2] 104 % of control | [3] 104 % of control

CN(C)/C=C(/C#N)C(=O)N1CCCC1
inactive: dose: 37.5 mg/kg/injection, schedule: Q04DX003 (ip), vehicle: saline 95 % of control | dose: 75.0 mg/kg/injection, schedule: Q04DX003 (ip), vehicle: saline 88 % of control | dose: 150.0 mg/kg/injection, schedule: Q04DX003 (ip), vehicle: saline 100 % of control

O=C(Nc1cccc(C(F)(F)F)c1)NC1CCCCC1
inactive: dose: 100.0 mg/kg/injection, schedule: Q04DX003 (ip), vehicle: gum acacia 87 % of control | dose: 200.0 mg/kg/injection, schedule: Q04DX003 (ip), vehicle: gum acacia 89 % of control | dose: 400.0 mg/kg/injection, schedule: Q04DX003 (ip), vehicle: gum acacia 87 % of control

CNc1ccccc1C(N)=O
inactive: [4] 94 % of control | [5] 100 % of control

COc1ccc2cc1Oc1ccc(cc1)C[C@H]1c3cc(c(OC)cc3CCN1C)Oc1c(O)c(OC)cc3c1[C@H](C2)N(C)CC3
inactive: dose: 25.0 mg/kg/injection, schedule: Q01DX009 (ip), vehicle: acid diluted with saline 116 % of control | dose: 50.0 mg/kg/injection, schedule: Q01DX009 (ip), vehicle: acid diluted with saline 105 % of control

S=c1[nH]c2ccccc2s1
inactive: dose: 25.0 mg/kg/injection, schedule: Q01DX009 (ip), vehicle: carboxymethylcellulose (CMC) 105 % of control | dose: 50.0 mg/kg/injection, schedule: Q01DX009 (ip), vehicle: carboxymethylcellulose (CMC) 103 % of control | dose: 100.0 mg/kg/injection, schedule: Q01DX009 (ip), vehicle: carboxymethylcellulose (CMC) 109 % of control

N#CCCc1ccccc1
inactive: dose: 3.13 mg/kg/injection, schedule: Q01DX009 (ip), vehicle: saline 100 % of control | [6] 97 % of control | [7] 100 % of control

COc1ccccc1N1CCCSC1=Nc1ccccc1
inactive: dose: 12.5 mg/kg/injection, schedule: Q01DX009 (ip), vehicle: Klucel (hydroxypropylcellulose) (HPC) 98 % of control | [8] 95 % of control | [9] 95 % of control | [4] 100 % of control | [5] 100 % of control

COc1cc2cc(c1Cl)N(C)C(=O)C[C@H](OC(=O)[C@H](C)N(C)C(C)=O)[C@]1(C)O[C@H]1[C@H](C)[C@@H]1C[C@@](O)(NC(=O)O1)[C@H](OC)C=C/C=C(\C)C2
active: dose: 1.0 micrograms/kg/injection, schedule: Q01DX009 (ip), vehicle: saline + alcohol 163 % of control | dose: 8.0 micrograms/kg/injection, schedule: Q01DX009 (ip), vehicle: saline 155 % of control | dose: 16.0 micrograms/kg/injection, schedule: Q01DX009 (ip), vehicle: saline 157 % of control
inactive: dose: 0.5 micrograms/kg/injection, schedule: Q01DX009 (ip), vehicle: saline 110 % of control | dose: 2.0 micrograms/kg/injection, schedule: Q01DX009 (ip), vehicle: saline 117 % of control | dose: 2.0 micrograms/kg/injection, schedule: Q04DX003 (ip), vehicle: saline 95 % of control | dose: 4.0 micrograms/kg/injection, schedule: Q01DX009 (ip), vehicle: saline 105 % of control | dose: 4.0 micrograms/kg/injection, schedule: Q04DX003 (ip), vehicle: saline 100 % of control | dose: 8.0 micrograms/kg/injection, schedule: Q04DX003 (ip), vehicle: saline 97 % of control | dose: 16.0 micrograms/kg/injection, schedule: Q04DX003 (ip), vehicle: saline 108 % of control | dose: 32.0 micrograms/kg/injection, schedule: Q01DX009 (ip), vehicle: saline 97 % of control | dose: 32.0 micrograms/kg/injection, schedule: Q04DX003 (ip), vehicle: saline 100 % of control

CC[N](CC)[Ge]([CH2]C)[CH2]C.CC[N](CC)[Ge]([CH2]C)[CH2]C
inactive: [6] 100 % of control | [7] 99 % of control | dose: 25.0 mg/kg/injection, schedule: Q01DX009 (ip), vehicle: saline 88 % of control | dose: 50.0 mg/kg/injection, schedule: Q01DX009 (ip), vehicle: saline 86 % of control

CSc1ccc(N=Cc2ccc3c(c2)OCO3)cc1
inactive: [4] 90 % of control | [5] 88 % of control

C[P+](C)(Cc1ccc([N+](=O)[O-])cc1)c1ccccc1
inactive: [8] 98 % of control | [9] 100 % of control
